Patent publication US20150224170A1 (priority 2010, published 2015)

Assays:
[1] = test system: Sindbis virus (SINV, TE strain); type: cell-based
[2] = test system: NFAT3; type: cell-based, rat; conditions: 10 uM
[3] = test system: SINV-infected differentiated CSM14.1 cells; type: cell-based, rat; conditions: 10 uM

SMILES: CCCOc1ccccc1-c1nc2nn[nH]c2c(=O)[nH]1 [zaprinast]
- viral titers / viral replication versus untreated SINV infection (in words) [1]: tended to slightly increase viral titers at most time points
- cytoplasmic NFAT3 (Western blot) [2]: remained constant at all timepoints
- effect on NFAT3 activation [2]: no effect
- nuclear NFAT3 (Western blot) [2]: remained constant at all timepoints
- viability / survival of infected cells [3]: did not detectably affect cell survival
